# Data as given in US20220133701A1, “METHODS OF TREATING PAIN” (Yeda Research and Development Co. Ltd., priority 2019, published 2022).
# Experiments:
# Type in all cases: in vivo, mouse
# [1] = test system: mice; test: Response to noxious heat (metal probe heated to 58° C. applied to paw, paw withdrawal latency)
# Description: Pain Models—Responses to noxious heat were assessed by applying a metal probe heated to 58° C. to a forelimb paw, while holding the animal. Paw withdrawal latency was timed, typically ranging between 2-4 seconds in wild-type animals. If the paw was not withdrawn within 20 seconds the assay was terminated. The test was repeated three times for each animal, with at least 20 minute intervals between repeats. Heat sensitivity was also assessed using the hot plate test [L. Urien et al., Sci Rep 7, 43493 (2017)]. To this end, mice were placed individually in a 20 cm high Plexiglas box on a metal surface set at 52, 55 or 58° C., and the latency to initiate a nociceptive response (licking, hind paws shaking, jumping) was monitored by videotape. Mice were removed from the plate immediately after a nociceptive response.
# [2] = test system: SNI mice; test: Spared nerve injury (SNI) model of neuropathic pain, paw withdrawal threshold (PWT) by Von Frey test; conditions: SNI mice, viral (AAV9) knockdown followed by SNI, from day 60 onward, vs shCtrl (FIG. 4E)
# Description: Chronic neuropathic pain was assessed using the spared nerve injury (SNI) model^13. Mice were anaesthetized with Ketamine/Xylazine (10 mg/kg body weight, intraperitoneal). The skin on the lateral surface of the thigh was incised and a section was made directly through the biceps femoris muscle in order to expose the sciatic nerve and its three terminal branches: the sural, common peroneal and tibial nerves. The SNI procedure comprised an axotomy and ligation of the tibial and common peroneal nerves leaving the sural nerve intact. The peroneal and the tibial nerves were tight-ligated and sectioned distal to the ligation. […] Following, mice were evaluated over a period of three months.
# Von Frey tests of sensitivity to mechanical stimuli were conducted as previously described [Marvaldi et al. Dev Neurobiol 75, 217 (2015)]. Briefly, mice were placed in acrylic chambers suspended above a wire mesh grid and allowed to habituate to the testing apparatus for one hour prior to experiments. When the mouse was calm, the von Frey filaments were pressed against the plantar surface of the paw until the filament buckled and held for a maximum of 3 seconds. A positive response was noted if the paw was sharply withdrawn on application of the filament. Testing began with filament target force 13.7 milliNewtons and progressed according to an up-down method. 2 gram Von Frey filaments were used to assess sensitivity to noxious mechanical stimulation, scoring mice responses as follows: 0, no response; 1, visible signs of discomfort without leg withdrawal; 2, withdrawal of the leg.
# [3] = test system: Kpna4/importin α3 mRNA; test: RT-qPCR of importin α3 (Kpna4) mRNA in DRG cultures after intrathecal AAV; conditions: DRG cultures from mice one month following intrathecal injection; vs shCtrl (FIG. 3F)
# Description: Gene expression analysis by RT-qPCR: Total RNA from DRG neuronal cultures and DRG tissue from SNI mice were extracted using the Ambion RNAqueous-Micro total RNA isolation kit (Life Technologies Corp.). RNA purity, integrity (RIN>8) and concentration was determined, and 100-200 ng of total RNA was then used to synthesize cDNA using SuperScript III (Invitrogen). RT-qPCR was performed on a ViiA7 System (Applied Biosystems) using PerfeCTa SYBR Green (Quanta Biosciences, Gaithersburg, USA). Forward/Reverse primers were designed for different exons and the RNA was treated with […] to avoid false-positives. Amplicon specificity was verified by melting curve analysis. All RT-qPCR reactions were conducted in technical triplicates and the results were averaged for each sample, normalized to Actb levels and the relevant reporter genes such as GFP and for the viruses; and analyzed using the comparative ΔΔCt method [Livak & Schmittgen. Methods 25, 402 (2001)]. The following primers (Mus musculus) were used: […]
substance,measurement,setting,value
"shα3: AAV9 expressing an importin α3 targeting shRNA (SEQ ID NO: 8), intrathecal injection (DNA GATCCGGCTTTGACAAACATTGCATGAAGCTTGATGCAATGTTTGTCAAAGCCTTTTTT)",response to noxious heat,[1]; importin α3 knockout (−/−) mice after intrathecal AAV9 construct,No further alteration of the noxious heat response
same,response to noxious heat,"[1]; importin α3 knockout (−/−) mice after intrathecal AAV9 construct, listed as anti-importin α3 shRNAs",no further effect on responses to noxious heat
same,response to noxious heat,"[1]; wild type mice after intrathecal injection of AAV9 construct, vs control construct",reduced response of WT mice to noxious heat
same,response to noxious heat,"[1]; wild type mice after intrathecal injection of AAV9 construct, vs control construct, listed as anti-importin α3 shRNAs",delayed paw withdrawal latency to noxious heat
same,"paw withdrawal threshold (PWT), Von Frey test",[2],recovery
same,"paw withdrawal threshold (PWT), Von Frey test",[2]; listed as anti-importin α3 shRNA,significant recovery of the paw withdrawal reflex
same,"impα3 mRNA (RT-qPCR, log 2 fold-change normalized to GFP)",[3],significant downregulation of impα3 mRNA
